The values below come from US9669003B2, “Use of flavone and flavanone derivatives in preparation of sedative and hypnotic drugs” (priority 2012, dated 2017).

Marks after values point to notes of the source that are not given here.

Format in all cases: in vivo
Test [1] concerns Kunming mice. Nature of the test: Influence on autonomic activity of normal mice (ZIL-2 mice autonomic activity meter, counts within 10 min). The settings on record: intragastric, x ± s; for Times of activities in 1 h after drug administration/10 min: 1 h after administration; for Times of activities in 2 h after drug administration/10 min: 2 h after administration; for Times of activities in 24 h after drug administration/10 min: 24 h after administration. An outline of the steps:
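Kunming mice (10 per group, half each sex) were dosed at 25, 50 or 100 mg/kg in 0.5% CMC-Na. Spontaneous activity counts over 10 min were recorded at 1 h, 2 h and 24 h post-dose. Groups were compared by ANOVA with Dunnett's test after Levene's check.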

Test [2] relates to Kunming mice. Kind of test: Influence on hypnosis effect with pentobarbital sodium doses below the threshold (25 mg/kg i.p.). The settings on record: pentobarbital sodium 25 mg/kg i.p. 60 min later, sleep observed in 30 min, n = 10. An outline of the steps: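 Kunming mice (10 per group, half female) given single oral doses of 25, 50 or 100 mg/kg in 0.5% CMC-Na; 60 min later pentobarbital sodium 25 mg/kg i.p. Sleep (righting reflex lost >1 min) scored within 30 min as percentage asleep, χ2 test.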

The test system of test [3] is Kunming mice. Nature of the test: Influence on hypnosis effect with pentobarbital sodium doses at the threshold (50 mg/kg i.p.). The settings on record: pentobarbital sodium 50 mg/kg i.p. 60 min later, x ± s, n = 10. An outline of the steps: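 Kunming mice (10/group, half each sex) received compound in 0.5% CMC-Na intragastrically at 25, 50 or 100 mg/kg; 60 min later given 0.3% sodium pentobarbital 50 mg/kg i.p. Sleep latency and duration recorded by loss of righting reflex over 1 min; ANOVA and χ2 for sleep incidence.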

[4] abbreviates: test drug 25 mg/kg intragastric single dose.
Setting [5] is: test drug 50 mg/kg intragastric single dose.
[6] abbreviates: test drug 100 mg/kg intragastric single dose.
Where [7] appears, read: 25 mg/kg intragastric single dose.
Where [8] appears, read: 50 mg/kg intragastric single dose.
Setting [9] is: 100 mg/kg intragastric single dose.

As to `COc1cc(OC)cc(C2CC(=O)c3c(OC)cc(OC)cc3O2)c1` (stereo not drawn) [Example 49], the “Times of activities in 1 h after drug administration/10 min” value (“Times of activities in 1 h” below) with Kunming mice [1] (25 mg/kg, n = 10) is 305.2 ± 78.7 /10 min; in the test with Kunming mice [1] (50 mg/kg, n = 10) it was 267.9 ± 21.5 /10 min; in the test with Kunming mice [1] (100 mg/kg, n = 10), 179.9 ± 35.9 /10 min. In addition, the “Times of activities in 2 h after drug administration/10 min” value (“Times of activities in 2 h” below) with Kunming mice [1] (25 mg/kg, n = 10) is 299.8 ± 94.1 /10 min; with Kunming mice [1] (50 mg/kg, n = 10), 246.6 ± 13.9 /10 min; in the test with Kunming mice [1] (100 mg/kg, n = 10) it was 170.5 ± 34.1 /10 min. Also, the “Times of activities in 24 h after drug administration/10 min” value (“Times of activities in 24 h” below) in the test with Kunming mice [1] (25 mg/kg, n = 10) is reported as 281.4 ± 94.3 /10 min; with Kunming mice [1] (50 mg/kg, n = 10), 274.2 ± 34.8 /10 min; in the test on Kunming mice [1] (100 mg/kg, n = 10), 286.1 ± 12.7 /10 min. Moreover, the “Number of sleeping animals” value in the test on Kunming mice [2] (setting [4]) turned out to be 4; with Kunming mice [2] (setting [5]), 6; in the test with Kunming mice [2] (setting [6]) it was 7. Further, the entries for the “rate of sleeping (%)” value in the test with Kunming mice [2] (setting [4]), with Kunming mice [2] (setting [5]) and in the test on Kunming mice [2] (setting [6]) were 40* %, 60** % and 70** %, respectively. Besides, the duration of sleep worked out at 37.90 ± 13.18 min in the test with Kunming mice [3] (setting [7]), 40.75 ± 23.05 min in the test with Kunming mice [3] (setting [8]) and 57.65 ± 17.87 min in the test on Kunming mice [3] (setting [9]). Moreover, the time to sleep was found to be 4.59 ± 1.55 min with Kunming mice [3] (setting [7]), 3.69 ± 1.32 min in the test on Kunming mice [3] (setting [8]) and 3.38 ± 1.29 min in the test with Kunming mice [3] (setting [9]).

On to `COc1ccc(C2CC(=O)c3c(OC)cc(OC)c(OC)c3O2)cc1OC` (stereo not drawn) [Example 44, 5,7,8,3′,4′-penta methoxyl-flavanone], for which the “Times of activities in 1 h” value with Kunming mice [1] (25 mg/kg, n = 10) is recorded as 220.8 ± 54.6 /10 min; in the test with Kunming mice [1] (50 mg/kg, n = 10), 143.4 ± 41.3 /10 min; in the test on Kunming mice [1] (100 mg/kg, n = 10) it was 103.4 ± 43.5 /10 min. The “Times of activities in 2 h” value in the test on Kunming mice [1] (25 mg/kg, n = 10) was 228.7 ± 43.3 /10 min; in the test with Kunming mice [1] (50 mg/kg, n = 10), 133.5 ± 38.3 /10 min; in the test on Kunming mice [1] (100 mg/kg, n = 10) it was 101.7 ± 45.1 /10 min. Moreover, the “Times of activities in 24 h” value is 311.6 ± 60.1 /10 min in the test on Kunming mice [1] (25 mg/kg, n = 10); 315.1 ± 85.5 /10 min in the test with Kunming mice [1] (50 mg/kg, n = 10); 303.8 ± 81.2 /10 min in the test on Kunming mice [1] (100 mg/kg, n = 10). Moreover, the “Number of sleeping animals” value in the test with Kunming mice [2] (setting [4]) was found to be 6; in the test with Kunming mice [2] (setting [5]) it was 7; in the test on Kunming mice [2] (setting [6]), 9. Besides, the “rate of sleeping (%)” value in the test on Kunming mice [2] (setting [4]) was 60** %; in the test on Kunming mice [2] (setting [5]), 70** %; with Kunming mice [2] (setting [6]), 90*** %. The results for the duration of sleep in the test with Kunming mice [3] (setting [7]), in the test with Kunming mice [3] (setting [8]) and in the test on Kunming mice [3] (setting [9]) were 58.25 ± 15.16 min, 76.74 ± 25.45 min and 89.39 ± 23.44 min, respectively. Also, the time to sleep with Kunming mice [3] (setting [7]) came to 4.43 ± 1.55 min; with Kunming mice [3] (setting [8]), 3.46 ± 1.23 min; in the test with Kunming mice [3] (setting [9]) it was 3.05 ± 1.57 min.

Regarding `COc1cc(C2Oc3c(cc(OC)c(OC)c3OC)C(=O)C2OC)c(O)c(OC)c1OC` (stereo not drawn) [Example 69, 6′-hydroxyl-3,6,7,8,3′,4′,5′-hepta methoxyl-flavanone], the “Times of activities in 1 h” value in the test with Kunming mice [1] (25 mg/kg, n = 10) was 322.3 ± 51.3 /10 min; in the test with Kunming mice [1] (50 mg/kg, n = 10), 298.0 ± 41.5 /10 min; with Kunming mice [1] (100 mg/kg, n = 10), 289.3 ± 50.7 /10 min. Besides, the “Times of activities in 2 h” value with Kunming mice [1] (25 mg/kg, n = 10) is given as 278.3 ± 40.3 /10 min; with Kunming mice [1] (50 mg/kg, n = 10), 251.7 ± 39.4 /10 min; in the test on Kunming mice [1] (100 mg/kg, n = 10) it was 235.8 ± 47.4 /10 min. Besides, the “Times of activities in 24 h” value with Kunming mice [1] (25 mg/kg, n = 10) is 299.1 ± 80.7 /10 min; in the test with Kunming mice [1] (50 mg/kg, n = 10), 309.1 ± 91.0 /10 min; with Kunming mice [1] (100 mg/kg, n = 10) it was 320.4 ± 80.4 /10 min. The “Number of sleeping animals” value amounted to 3 in the test on Kunming mice [2] (setting [4]), 5 with Kunming mice [2] (setting [5]) and 7 in the test on Kunming mice [2] (setting [6]). The “rate of sleeping (%)” value in the test on Kunming mice [2] (setting [4]) was 30%; in the test on Kunming mice [2] (setting [5]), 50* %; in the test with Kunming mice [2] (setting [6]), 70** %. In addition, the values for the duration of sleep in the test with Kunming mice [3] (setting [7]), in the test with Kunming mice [3] (setting [8]) and in the test on Kunming mice [3] (setting [9]) were 31.77 ± 22.78 min, 57.73 ± 18.49 min and 64.09 ± 31.23 min, respectively. The values for the time to sleep in the test on Kunming mice [3] (setting [7]), in the test with Kunming mice [3] (setting [8]) and in the test on Kunming mice [3] (setting [9]) were 4.98 ± 1.88 min, 4.27 ± 1.62 min and 3.87 ± 1.78 min, respectively.

Turning to `COc1cc(OC)c2c(=O)cc(-c3ccc(OC)c(OC)c3)oc2c1` [Example 7, 5,7,3′,4′-tetramethoxyl-flavone], the “Times of activities in 1 h” value with Kunming mice [1] (25 mg/kg, n = 10, 25 mg/kg) was 248.5 ± 55.1 /10 min; in the test on Kunming mice [1] (50 mg/kg, n = 10, 50 mg/kg) it was 184.7 ± 52.6 /10 min; in the test with Kunming mice [1] (100 mg/kg, n = 10, 100 mg/kg), 125.2 ± 44.5 /10 min. Moreover, the “Times of activities in 2 h” value in the test with Kunming mice [1] (25 mg/kg, n = 10, 25 mg/kg) was 234.1 ± 45.8 /10 min; with Kunming mice [1] (50 mg/kg, n = 10, 50 mg/kg), 164.4 ± 45.8 /10 min; in the test on Kunming mice [1] (100 mg/kg, n = 10, 100 mg/kg), 122.2 ± 48.6 /10 min. Also, the “Times of activities in 24 h” value is 303.4 ± 75.8 /10 min with Kunming mice [1] (25 mg/kg, n = 10, 25 mg/kg); 318.5 ± 83.6 /10 min with Kunming mice [1] (50 mg/kg, n = 10, 50 mg/kg); 329.8 ± 53.2 /10 min with Kunming mice [1] (100 mg/kg, n = 10, 100 mg/kg). In addition, the “Number of sleeping animals” value in the test with Kunming mice [2] (setting [4]) was determined as 5; with Kunming mice [2] (setting [5]) it was 6; in the test with Kunming mice [2] (setting [6]), 9. Further, the “rate of sleeping (%)” value with Kunming mice [2] (setting [4]) is 50** %; in the test with Kunming mice [2] (setting [5]) it was 60** %; in the test with Kunming mice [2] (setting [6]) it was 90*** %. Moreover, the values for the duration of sleep with Kunming mice [3] (setting [7]), in the test on Kunming mice [3] (setting [8]) and in the test on Kunming mice [3] (setting [9]) were 61.21 ± 22.82 min, 79.27 ± 21.17 min and 87.43 ± 21.56 min, respectively. In addition, the time to sleep in the test with Kunming mice [3] (setting [7]) stood at 3.25 ± 1.93 min; with Kunming mice [3] (setting [8]) it was 3.03 ± 1.41 min; in the test with Kunming mice [3] (setting [9]) it was 2.32 ± 1.21 min.

In the case of `COc1cc(-c2cc(=O)c3c(OC)c(OC)c(OC)c(OC)c3o2)cc(OC)c1OC` [Example 15, 5,6,7,8,3′,4′,5′-heptamethoxyl-flavone], the “Times of activities in 1 h” value is 287.1 ± 39.1 /10 min in the test with Kunming mice [1] (25 mg/kg, n = 10); 254.7 ± 41.2 /10 min with Kunming mice [1] (50 mg/kg, n = 10); 179.6 ± 44.3 /10 min in the test on Kunming mice [1] (100 mg/kg, n = 10). Moreover, the “Times of activities in 2 h” value in the test on Kunming mice [1] (25 mg/kg, n = 10) is recorded as 255.1 ± 42.9 /10 min; in the test with Kunming mice [1] (50 mg/kg, n = 10), 239.9 ± 42.6 /10 min; in the test with Kunming mice [1] (100 mg/kg, n = 10), 152.5 ± 36.9 /10 min. Besides, the “Times of activities in 24 h” value is on record as 308.5 ± 75.2 /10 min in the test with Kunming mice [1] (25 mg/kg, n = 10); 317.4 ± 95.6 /10 min in the test with Kunming mice [1] (50 mg/kg, n = 10); 287.8 ± 89.1 /10 min in the test with Kunming mice [1] (100 mg/kg, n = 10). The “Number of sleeping animals” value with Kunming mice [2] (setting [4]) worked out at 3; in the test with Kunming mice [2] (setting [5]), 6; in the test with Kunming mice [2] (setting [6]), 8. In addition, the “rate of sleeping (%)” value with Kunming mice [2] (setting [4]) is recorded as 30%; with Kunming mice [2] (setting [5]) it was 60** %; with Kunming mice [2] (setting [6]) it was 80*** %. The duration of sleep with Kunming mice [3] (setting [7]) worked out at 39.93 ± 15.22 min; in the test with Kunming mice [3] (setting [8]), 51.53 ± 21.35 min; with Kunming mice [3] (setting [9]), 58.25 ± 21.48 min. In addition, the time to sleep with Kunming mice [3] (setting [7]) is reported as 4.31 ± 1.65 min; in the test on Kunming mice [3] (setting [8]), 3.53 ± 1.22 min; in the test with Kunming mice [3] (setting [9]), 3.29 ± 1.58 min.
